How the values were obtained:
Format in all cases: in vivo
Echinochloa crus-galli = test: Example 1 post-emergence greenhouse trial, ECHCG; conditions: growth stage 14, 21 DAT
Experimental: In the examples below, using the method of S. R. Colby (1967) “Calculating synergistic and antagonistic responses of herbicide combinations”, Weeds 15, p. 22ff., the value E, which is expected if the activity of the individual active compounds is only additive, was calculated: [formula] • where • X=percent activity using active herbicide A at an application rate a; • Y=percent activity using active herbicide B (e.g. mesotrione) at an application rate b; • E=expected activity (in %) by A+B at application rates a+b. If the value found experimentally is higher than the value E calculated according to Colby, a synergistic effect is present. The culture containers used were plastic pots containing loamy sand with approximately 3.0% of humus as substrate. The seeds of the test plants were sown separately for each species. For the post-emergence treatment, the test plants were grown to a plant height of from 3 to 15 cm, depending on the plant habit, and only then treated with the active compounds which had been suspended or emulsified in water. To this end, the test plants were either sown directly, and grown in the same containers, or they were first grown separately as seedlings and transplanted into the test containers a few days prior to treatment. Depending on the species, the plants were kept at 10-25° C. and 20-35° C., respectively. The test period extended over 2 to 4 weeks. During this time, the plants were tended and their response to the individual treatments was evaluated. Evaluation was carried out using a scale from 0 to 100. 100 means no emergence of the plants, or complete destruction of at least the above-ground parts, and 0 means no damage or normal course of growth. A good herbicidal activity is given at values of at least 70, and very good herbicidal activity is given at values of at least 85. Post-Emergence Application of Herbicide A-1 (A-1) and Mesotrione (B) in Greenhouse Trials Herbicide A-1 (50 g/l) and mesotrione (480 g/l) were, together with addition of 1 v/v % MSO (methylated sed oil) as adjuvant, formulated in water as distribution medium (water volume 200 l/ha) and sprayed with commercial flat fan nozzles.

Glycine max = test: Example 3 post-emergence field trial, GLXMA; conditions: height 7-11 cm
Experimental: (§1) In the examples below, using the method of S. R. Colby (1967) “Calculating synergistic and antagonistic responses of herbicide combinations”, Weeds 15, p. 22ff., the value E, which is expected if the activity of the individual active compounds is only additive, was calculated: [formula] • where • X=percent activity using active herbicide A at an application rate a; • Y=percent activity using active herbicide B (e.g. mesotrione) at an application rate b; • E=expected activity (in %) by A+B at application rates a+b. If the value found experimentally is higher than the value E calculated according to Colby, a synergistic effect is present. Evaluation was carried out using a scale from 0 to 100. 100 means no emergence of the plants, or complete destruction of at least the above-ground parts, and 0 means no damage or normal course of growth. A good herbicidal activity is given at values of at least 70, and very good herbicidal activity is given at values of at least 85. Post-Emergence Application of Herbicide A-1 (A-1) and Mesotrione (B) in Field Trials Herbicide A-1 (342 g/l) and mesotrione (100 g/l) were, together with addition of 0.5 v/v % MSO (methylated sed oil) as adjuvant, formulated in water as distribution medium (water volume 200 l/ha) and sprayed with commercial flat fan nozzles.

Erigeron canadensis = test: Example 2 post-emergence greenhouse trial, ERICA
Experimental: In the examples below, using the method of S. R. Colby (1967) “Calculating synergistic and antagonistic responses of herbicide combinations”, Weeds 15, p. 22ff., the value E, which is expected if the activity of the individual active compounds is only additive, was calculated: [formula] • where • X=percent activity using active herbicide A at an application rate a; • Y=percent activity using active herbicide B (e.g. mesotrione) at an application rate b; • E=expected activity (in %) by A+B at application rates a+b. If the value found experimentally is higher than the value E calculated according to Colby, a synergistic effect is present. The culture containers used were plastic pots containing loamy sand with approximately 3.0% of humus as substrate. The seeds of the test plants were sown separately for each species. For the post-emergence treatment, the test plants were grown to a plant height of from 3 to 15 cm, depending on the plant habit, and only then treated with the active compounds which had been suspended or emulsified in water. To this end, the test plants were either sown directly, and grown in the same containers, or they were first grown separately as seedlings and transplanted into the test containers a few days prior to treatment. Depending on the species, the plants were kept at 10-25° C. and 20-35° C., respectively. The test period extended over 2 to 4 weeks. During this time, the plants were tended and their response to the individual treatments was evaluated. Evaluation was carried out using a scale from 0 to 100. 100 means no emergence of the plants, or complete destruction of at least the above-ground parts, and 0 means no damage or normal course of growth. A good herbicidal activity is given at values of at least 70, and very good herbicidal activity is given at values of at least 85. Post-Emergence Application of Herbicide A-1 (A-1) and Mesotrione (B) in Greenhouse Trials Herbicide A-1 (342 g/l) and mesotrione (480 g/l) were, together with addition of 0.5 v/v % MSO (methylated sed oil) as adjuvant, formulated in water as distribution medium (water volume 200 l/ha) and sprayed with commercial flat fan nozzles.

Digitaria sanguinalis = test: Example 3 post-emergence field trial, DIGSA; conditions: height 10-15 cm; for % herbicidal activity B / % herbicidal activity A-1: 42 DAT
Experimental: as §1

Hordeum vulgare = test: Example 3 post-emergence field trial, HORVX; conditions: height 20-25 cm
Experimental: as §1

Lolium multiflorum = test: Example 3 post-emergence field trial, LOLMU; conditions: height 20-25 cm
Experimental: as §1

[1] = 7 DAT, g ai/ha: A-1 12.5, B 105
[2] = 21 DAT, g ai/ha: A-1 12.5, B 105
[3] = growth stage 19, 7 DAT, g ai/ha: A-1 1, B 50
[4] = growth stage 19, 20 DAT, g ai/ha: A-1 0.5, B 50
[5] = growth stage 19, 20 DAT, g ai/ha: A-1 2, B 50
[6] = 7 DAT, g ai/ha: A-1 12.5, B 210
[7] = 21 DAT, g ai/ha: A-1 12.5, B 210
[8] = 28 DAT, g ai/ha: A-1 12.5, B 105
[9] = 28 DAT, g ai/ha: A-1 12.5, B 210

CS(=O)(=O)c1ccc(C(=O)C2C(=O)CCCC2=O)c([N+](=O)[O-])c1 [B, mesotrione]
55%: % herbicidal activity (Glycine max; [1]) | % herbicidal activity (Glycine max; 7 DAT, g ai/ha: A-1 18, B 105) | % herbicidal activity B (Digitaria sanguinalis; B 105 g ai/ha)
80%: % herbicidal activity (Erigeron canadensis; [4]) | % herbicidal activity (Erigeron canadensis; [5])
30%: % herbicidal activity (Lolium multiflorum; [1]) | % herbicidal activity (Lolium multiflorum; [6]) | % herbicidal activity (Lolium multiflorum; 7 DAT, g ai/ha: A-1 18, B 105) | % herbicidal activity (Lolium multiflorum; 7 DAT, g ai/ha: A-1 18, B 210) | % herbicidal activity (Lolium multiflorum; 21 DAT, g ai/ha: A-1 18, B 210) | % herbicidal activity (Lolium multiflorum; 28 DAT, g ai/ha: A-1 18, B 210)
20%: % herbicidal activity (Hordeum vulgare; [1]) | % herbicidal activity (Hordeum vulgare; 7 DAT, g ai/ha: A-1 18, B 105) | % herbicidal activity (Hordeum vulgare; [2]) | % herbicidal activity (Hordeum vulgare; 21 DAT, g ai/ha: A-1 18, B 105) | % herbicidal activity (Hordeum vulgare; [8]) | % herbicidal activity (Hordeum vulgare; [9]) | % herbicidal activity (Hordeum vulgare; 28 DAT, g ai/ha: A-1 18, B 105) | % herbicidal activity (Hordeum vulgare; 28 DAT, g ai/ha: A-1 18, B 210)
50%: % herbicidal activity (Digitaria sanguinalis; [1]) | % herbicidal activity (Digitaria sanguinalis; 7 DAT, g ai/ha: A-1 18, B 105)
70%: % herbicidal activity B (Digitaria sanguinalis; B 210 g ai/ha)
45%: % herbicidal activity (Glycine max; [2])
0%: % herbicidal activity B (Hordeum vulgare; 42 DAT, B 210 g ai/ha) | % herbicidal activity (Hordeum vulgare; [6]) | % herbicidal activity (Hordeum vulgare; 7 DAT, g ai/ha: A-1 18, B 210) | % herbicidal activity (Hordeum vulgare; [7]) | % herbicidal activity (Hordeum vulgare; 21 DAT, g ai/ha: A-1 18, B 210)
25%: % herbicidal activity (Erigeron canadensis; [3])
65%: % herbicidal activity (Echinochloa crus-galli; g ai/ha: A-1 1, B 62.5) | % herbicidal activity (Echinochloa crus-galli; g ai/ha: A-1 4, B 62.5) | % herbicidal activity (Digitaria sanguinalis; [2]) | % herbicidal activity (Digitaria sanguinalis; 21 DAT, g ai/ha: A-1 18, B 105)

CCOC(=O)COc1ccccc1Oc1nc(-n2c(=O)cc(C(F)(F)F)n(C)c2=O)c(F)cc1Cl [A-1, ethyl 2-[2-[[3-chloro-5-fluoro-6-[3-methyl-2,6-dioxo-4-(trifluoromethyl)pyrimidin-1-yl]-2-pyridyl]oxy]phenoxy]acetate]
40%: % herbicidal activity (Lolium multiflorum; 21 DAT, g ai/ha: A-1 18, B 210) | % herbicidal activity (Lolium multiflorum; 28 DAT, g ai/ha: A-1 18, B 210)
80%: % herbicidal activity (Erigeron canadensis; [3]) | % herbicidal activity (Digitaria sanguinalis; [1]) | % herbicidal activity (Digitaria sanguinalis; 7 DAT, g ai/ha: A-1 18, B 105) | % herbicidal activity (Digitaria sanguinalis; 21 DAT, g ai/ha: A-1 18, B 105) | % herbicidal activity (Hordeum vulgare; 7 DAT, g ai/ha: A-1 18, B 105)
60%: % herbicidal activity (Hordeum vulgare; [6]) | % herbicidal activity (Hordeum vulgare; [7]) | % herbicidal activity (Lolium multiflorum; [1]) | % herbicidal activity (Lolium multiflorum; [6])
70%: % herbicidal activity (Erigeron canadensis; [4]) | % herbicidal activity A-1 (Digitaria sanguinalis; A-1 18 g ai/ha) | % herbicidal activity (Digitaria sanguinalis; [2]) | % herbicidal activity (Hordeum vulgare; [1]) | % herbicidal activity (Hordeum vulgare; 7 DAT, g ai/ha: A-1 18, B 210) | % herbicidal activity (Hordeum vulgare; [2]) | % herbicidal activity (Hordeum vulgare; 21 DAT, g ai/ha: A-1 18, B 210) | % herbicidal activity (Hordeum vulgare; [8]) | % herbicidal activity (Hordeum vulgare; [9]) | % herbicidal activity (Hordeum vulgare; 28 DAT, g ai/ha: A-1 18, B 210) | % herbicidal activity (Lolium multiflorum; 7 DAT, g ai/ha: A-1 18, B 210)
92%: % herbicidal activity (Glycine max; [2])
65%: % herbicidal activity A-1 (Digitaria sanguinalis; A-1 12.5 g ai/ha) | % herbicidal activity (Lolium multiflorum; 7 DAT, g ai/ha: A-1 18, B 105)
85%: % herbicidal activity (Erigeron canadensis; [5]) | % herbicidal activity (Hordeum vulgare; 21 DAT, g ai/ha: A-1 18, B 105)
90%: % herbicidal activity (Echinochloa crus-galli; g ai/ha: A-1 1, B 62.5) | % herbicidal activity (Echinochloa crus-galli; g ai/ha: A-1 4, B 62.5) | % herbicidal activity (Glycine max; [1]) | % herbicidal activity (Glycine max; 7 DAT, g ai/ha: A-1 18, B 105) | % herbicidal activity (Hordeum vulgare; 28 DAT, g ai/ha: A-1 18, B 105)
95%: % herbicidal activity A-1 (Hordeum vulgare; 42 DAT, A-1 12.5 g ai/ha)
